Data as given in ChEMBL document CHEMBL3046898, “Synthesis and characterization of flurbiprofen hydrazide derivatives as potential anti-HCV, anticancer and antimicrobial agents” (2013).
Active and inactive are the calls of the source. No cut-off for these calls is given here.

What was measured:
[1] = tested on: Pseudomonas aeruginosa; assay: Antibacterial activity against Pseudomonas aeruginosa at 10 mg/ml after 24 hrs by disc diffusion method; format: functional, organism-based
[2] = tested on: Micrococcus lylae; assay: Antibacterial activity against Micrococcus lylae at 6.25 to 200 ug/ml after 24 hrs by microwell dilution method; format: functional, organism-based
[3] = tested on: Acinetobacter radioresistens; assay: Antibacterial activity against Acinetobacter radioresistens at 6.25 to 200 ug/ml after 24 hrs by microwell dilution method; format: functional, organism-based
[4] = tested on: Aspergillus; assay: Antifungal activity against Aspergillus at 10 mg/ml after 72 hrs by disc diffusion method; format: functional, organism-based
[5] = tested on: Photorhabdus luminescens; assay: Antibacterial activity against Photorhabdus luminescens at 10 mg/ml after 24 hrs by disc diffusion method; format: functional, organism-based
[6] = tested on: Pseudomonas aeruginosa; assay: Antibacterial activity against Pseudomonas aeruginosa at 6.25 to 200 ug/ml after 24 hrs by microwell dilution method; format: functional, organism-based
[7] = tested on: Candida albicans; assay: Antifungal activity against Candida albicans at 10 mg/ml after 48 hrs by disc diffusion method; format: functional, organism-based
[8] = tested on: Staphylococcus cohnii; assay: Antibacterial activity against Staphylococcus cohnii at 10 mg/ml after 24 hrs by disc diffusion method; format: functional
[9] = tested on: Candida tropicalis; assay: Antifungal activity against Candida tropicalis at 10 mg/ml after 48 hrs by disc diffusion method; format: functional, organism-based
[10] = tested on: Escherichia coli; assay: Antibacterial activity against Escherichia coli at 10 mg/ml after 24 hrs by disc diffusion method; format: functional, organism-based
[11] = tested on: Salmonella paratyphi; assay: Antibacterial activity against Salmonella paratyphi at 6.25 to 200 ug/ml after 24 hrs by microwell dilution method; format: functional, organism-based; conditions: Salmonella enterica subsp. enterica serovar Paratyphi A
[12] = tested on: Escherichia coli; assay: Antibacterial activity against Escherichia coli at 6.25 to 200 ug/ml after 24 hrs by microwell dilution method; format: functional, organism-based
[13] = tested on: Salmonella paratyphi; assay: Antibacterial activity against Salmonella paratyphi at 10 mg/ml after 24 hrs by disc diffusion method; format: functional, organism-based; conditions: Salmonella enterica subsp. enterica serovar Paratyphi A
[14] = tested on: Schwanniomyces occidentalis; assay: Antifungal activity against Schwanniomyces occidentalis at 10 mg/ml after 48 hrs by disc diffusion method; format: functional, organism-based
[15] = tested on: Photorhabdus luminescens; assay: Antibacterial activity against Photorhabdus luminescens at 6.25 to 200 ug/ml after 24 hrs by microwell dilution method; format: functional, organism-based
[16] = tested on: Klebsiella aerogenes; assay: Antibacterial activity against Enterobacter aerogenes at 10 mg/ml after 24 hrs by disc diffusion method; format: functional, organism-based
[17] = tested on: Proteus vulgaris; assay: Antibacterial activity against Proteus vulgaris at 10 mg/ml after 24 hrs by disc diffusion method; format: functional, organism-based
[18] = tested on: Proteus vulgaris; assay: Antibacterial activity against Proteus vulgaris at 6.25 to 200 ug/ml after 24 hrs by microwell dilution method; format: functional, organism-based
[19] = tested on: Kluyveromyces marxianus; assay: Antifungal activity against Kluyveromyces marxianus at 10 mg/ml after 48 hrs by disc diffusion method; format: functional, organism-based
[20] = tested on: Nakaseomyces glabratus; assay: Antifungal activity against Candida glabrata at 10 mg/ml after 48 hrs by disc diffusion method; format: functional, organism-based
[21] = tested on: Staphylococcus aureus; assay: Antibacterial activity against Staphylococcus aureus at 6.25 to 200 ug/ml after 24 hrs by microwell dilution assay; format: functional, organism-based
[22] = tested on: Acinetobacter radioresistens; assay: Antibacterial activity against Acinetobacter radioresistens at 10 mg/ml after 24 hrs by disc diffusion method; format: functional, organism-based
[23] = tested on: Micrococcus lylae; assay: Antibacterial activity against Micrococcus lylae at 10 mg/ml after 24 hrs by disc diffusion method; format: functional, organism-based
[24] = tested on: Candida parapsilosis; assay: Antifungal activity against Candida parapsilosis at 10 mg/ml after 48 hrs by disc diffusion method; format: functional, organism-based
[25] = tested on: Micrococcus luteus; assay: Antibacterial activity against Micrococcus luteus at 10 mg/ml after 24 hrs by disc diffusion method; format: functional, organism-based
[26] = tested on: Hepacivirus hominis; assay: Inhibition of HCV N-terminal His-tagged NS5B RNA dependent RNA polymerase expressed in Escherichia coli DH5alpha using poly rA/U12 as primer at 200 uM after 60 mins by liquid scintillation counting
[27] = tested on: Micrococcus luteus; assay: Antibacterial activity against Micrococcus luteus at 6.25 to 200 ug/ml after 24 hrs by microwell dilution method; format: functional, organism-based
[28] = tested on: Pichia membranifaciens; assay: Antifungal activity against Pichia membranifaciens at 10 mg/ml after 48 hrs by disc diffusion method; format: functional, organism-based
[29] = tested on: Klebsiella aerogenes; assay: Antibacterial activity against Enterobacter aerogenes at 6.25 to 200 ug/ml after 24 hrs by microwell dilution method; format: functional, organism-based
[30] = tested on: Staphylococcus cohnii; assay: Antibacterial activity against Staphylococcus cohnii at 6.25 to 200 ug/ml after 24 hrs by microwell dilution assay; format: functional, organism-based
[31] = tested on: Staphylococcus aureus; assay: Antibacterial activity against Staphylococcus aureus at 10 mg/ml after 24 hrs by disc diffusion method; format: functional
[32] = tested on: T47D; assay: Cytotoxicity against human T47D assessed as cell growth at 10 uM after 48 hrs by SRB assay; format: functional; conditions: read-out: Activity
[33] = tested on: Staphylococcus aureus; assay: Antibacterial activity against Staphylococcus aureus at 100 to 200 ug/ml after 24 hrs by microwell dilution assay; format: functional, organism-based
[34] = tested on: Staphylococcus cohnii; assay: Antibacterial activity against Staphylococcus cohnii at 100 to 200 ug/ml after 24 hrs by microwell dilution assay; format: functional, organism-based
[35] = tested on: Micrococcus luteus; assay: Antibacterial activity against Micrococcus luteus at 100 to 200 ug/ml after 24 hrs by microwell dilution assay; format: functional, organism-based

SMILES | Activity [1] | Activity [2] | Activity [3] | Activity [4] | Activity [5] | Activity [6] | Activity [7] | Activity [8] | Activity [9] | Activity [10] | Activity [11] | Activity [12] | Activity [13] | Activity [14] | Activity [15] | Activity [16] | Activity [17] | Activity [18] | Activity [19] | inhibition [26] [%] | further results
CC(C(=O)NN1C(=O)CSC1c1ccc(F)cc1)c1ccc(-c2ccccc2)c(F)c1 (stereo not drawn) | inactive | inactive | inactive | inactive | inactive | inactive | inactive | inactive | inactive | inactive | inactive | inactive | inactive | inactive | inactive | inactive | inactive | inactive | inactive | 8 | Activity [20]: inactive; Activity [21]: inactive; Activity [22]: inactive; Activity [23]: inactive; Activity [24]: inactive; Activity [25]: inactive; Activity [27]: inactive; Activity [28]: inactive; Activity [29]: inactive; Activity [30]: inactive; Activity [31]: inactive
CC(C(=O)N/N=C/c1ccc(Cl)cc1)c1ccc(-c2ccccc2)c(F)c1 (stereo not drawn) | inactive | inactive | inactive | inactive | inactive | inactive | inactive | inactive | inactive | inactive | inactive | inactive | inactive | inactive | inactive | inactive | inactive | inactive | inactive | 8 | Activity [20]: inactive; Activity [21]: inactive; Activity [22]: inactive; Activity [23]: inactive; Activity [24]: inactive; Activity [25]: inactive; Activity [27]: inactive; Activity [28]: inactive; Activity [29]: inactive; Activity [30]: inactive; Activity [31]: inactive
CC(C(=O)NNC(=S)NC1CCCCC1)c1ccc(-c2ccccc2)c(F)c1 (stereo not drawn) | inactive | inactive | inactive | inactive | inactive | inactive | inactive | inactive | inactive | inactive | inactive | inactive | inactive | inactive | inactive | inactive | inactive | inactive | inactive | 8 | Activity [20]: inactive; Activity [21]: inactive; Activity [22]: inactive; Activity [23]: inactive; Activity [24]: inactive; Activity [25]: inactive; Activity [27]: inactive; Activity [28]: inactive; Activity [29]: inactive; Activity [30]: inactive; Activity [31]: inactive
CCNC(=S)NNC(=O)C(C)c1ccc(-c2ccccc2)c(F)c1 (stereo not drawn) | inactive | inactive | inactive | inactive | inactive | inactive | inactive | inactive | inactive | inactive | inactive | inactive | inactive | inactive | inactive | inactive | inactive | inactive | inactive | 8 | Activity [20]: inactive; Activity [21]: inactive; Activity [22]: inactive; Activity [23]: inactive; Activity [24]: inactive; Activity [25]: inactive; Activity [27]: inactive; Activity [28]: inactive; Activity [29]: inactive; Activity [30]: inactive; Activity [31]: inactive
CC(C(=O)N/N=C/c1c(F)cccc1F)c1ccc(-c2ccccc2)c(F)c1 (stereo not drawn) | inactive | inactive | inactive | inactive | inactive | inactive | inactive | inactive | inactive | inactive | inactive | inactive | inactive | inactive | inactive | inactive | inactive | inactive | inactive | 8 | Activity [20]: inactive; Activity [21]: inactive; growth at 10 µM [32]: 55.3%; Activity [22]: inactive; Activity [23]: inactive; Activity [24]: inactive; Activity [25]: inactive; Activity [27]: inactive; Activity [28]: inactive; Activity [29]: inactive; Activity [30]: inactive; Activity [31]: inactive
CC(C(=O)N/N=C/c1ccc(C(F)(F)F)cc1)c1ccc(-c2ccccc2)c(F)c1 (stereo not drawn) | inactive | inactive | inactive | inactive | inactive | inactive | inactive | inactive | inactive | inactive | inactive | inactive | inactive | inactive | inactive | inactive | inactive | inactive | inactive | 8 | Activity [20]: inactive; Activity [21]: inactive; Activity [22]: inactive; Activity [23]: inactive; Activity [24]: inactive; Activity [25]: inactive; Activity [27]: inactive; Activity [28]: inactive; Activity [29]: inactive; Activity [30]: inactive; Activity [31]: inactive
CC(C(=O)NN1C(=O)CSC1c1ccc([N+](=O)[O-])o1)c1ccc(-c2ccccc2)c(F)c1 (stereo not drawn) | – | – | – | – | – | – | – | – | – | – | – | – | – | – | – | – | – | – | – | 8 | zone of inhibition at 10000 µg/mL ([8]; read-out: DIZ): 10 mm; Activity [33]: Active; Activity [34]: Active; Activity [35]: Active; zone of inhibition at 10000 µg/mL ([31]; read-out: DIZ): 10 mm
